Results on 24 compounds are retold here after ChEMBL document CHEMBL1136147, “Sub-nanomolar hMC1R agonists by end-capping of the melanocortin tetrapeptide His-D-Phe-Arg-Trp-NH(2)” (Bioorg Med Chem Lett, 2003).

In general, Ki refers to a measure of affinity in units of concentration, obtained from inhibition or displacement. A high value points to a looser hold on the target. What is called EC50 is the concentration needed to bring the measured effect to its halfway point. Read a low EC50 as greater potency.

The target in assay [1] is T1, Melanocyte-stimulating hormone receptor (Homo sapiens, UniProt Q01726). Briefly: Binding affinity towards human Melanocortin 1 receptor (hMC1R).
T1 sequence (Q01726 whole entry): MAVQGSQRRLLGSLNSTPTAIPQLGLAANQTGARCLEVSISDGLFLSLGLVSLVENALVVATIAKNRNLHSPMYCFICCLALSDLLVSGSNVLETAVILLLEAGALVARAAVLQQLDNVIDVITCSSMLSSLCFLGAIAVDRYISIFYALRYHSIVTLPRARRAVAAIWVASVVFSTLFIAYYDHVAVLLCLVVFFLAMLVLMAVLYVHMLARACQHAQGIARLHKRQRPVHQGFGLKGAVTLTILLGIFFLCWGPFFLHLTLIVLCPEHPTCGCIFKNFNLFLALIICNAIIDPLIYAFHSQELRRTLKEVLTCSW
In assay [2] the target is T2, Melanocortin receptor 4 (Homo sapiens, UniProt P32245). Briefly: Binding affinity towards human melanocortin 4 receptor (hMC4R).
T2 sequence (P32245 whole entry): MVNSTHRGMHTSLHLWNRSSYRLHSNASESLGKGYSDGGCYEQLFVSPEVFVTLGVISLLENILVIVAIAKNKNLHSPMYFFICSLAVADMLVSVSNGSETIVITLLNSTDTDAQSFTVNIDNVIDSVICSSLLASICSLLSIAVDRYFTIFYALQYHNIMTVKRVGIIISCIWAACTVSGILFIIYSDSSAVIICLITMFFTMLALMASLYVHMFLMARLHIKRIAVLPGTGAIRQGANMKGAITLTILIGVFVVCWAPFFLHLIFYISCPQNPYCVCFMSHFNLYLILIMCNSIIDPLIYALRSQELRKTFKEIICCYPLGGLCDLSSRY
The target in assay [3] is T3, Melanocortin receptor 3 (Homo sapiens, UniProt P41968). As to the kind of experiment: In vitro agonist potency was evaluated in HEK293 cells transfected with human melanocortin receptor (hMC3R). It is filed as functional, cell-based.
T3 sequence (P41968 whole entry): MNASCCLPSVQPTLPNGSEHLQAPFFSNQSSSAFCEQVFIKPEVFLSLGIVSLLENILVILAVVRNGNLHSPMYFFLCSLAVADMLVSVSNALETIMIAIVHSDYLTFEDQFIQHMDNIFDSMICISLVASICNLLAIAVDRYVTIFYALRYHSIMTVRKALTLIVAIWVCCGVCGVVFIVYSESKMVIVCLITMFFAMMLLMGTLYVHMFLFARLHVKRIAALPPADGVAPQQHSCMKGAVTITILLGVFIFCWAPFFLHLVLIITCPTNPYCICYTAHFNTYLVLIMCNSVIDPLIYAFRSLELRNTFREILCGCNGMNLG
Assay [4] concerns the target T1, Melanocyte-stimulating hormone receptor. Briefly: In vitro agonist potency was evaluated in HEK293 cells transfected with human melanocortin receptor (hMC1R). It is filed as functional, cell-based.
Assay [5] addresses T2, Melanocortin receptor 4. Briefly: In vitro agonist potency was evaluated in HEK293 cells transfected with human melanocortin receptor (hMC4R). It is filed as functional, cell-based.
Assay [6] concerns the target T3, Melanocortin receptor 3. As to the kind of experiment: Binding affinity towards human Melanocortin 3 receptor (hMC3R).

As for `CC(C)C(=O)N[C@@H](Cc1cnc[nH]1)C(=O)N[C@@H](Cc1ccccc1)C(=O)N[C@@H](CCCNC(=N)N)C(=O)N[C@@H](Cc1c[nH]c2ccccc12)C(N)=O`, the Ki in assay [1] is 40 nM; in assay [2], 97.5 nM; in assay [6], 280 nM. For the same compound, the EC50 was determined as 130 nM in assay [3], 7 nM in assay [4] and 24 nM in assay [5].

For the compound `N=C(N)NCCC[C@H](NC(=O)[C@H](Cc1ccccc1)NC(=O)[C@H](Cc1c[nH]cn1)NC(=O)CCc1ccccc1)C(=O)N[C@@H](Cc1c[nH]c2ccccc12)C(N)=O`, the inhibitory constant (Ki) in assay [1] was determined as 6 nM; in assay [2], 49 nM; in assay [6], 65 nM. Moreover, the EC50 in assay [3] turned out to be 17 nM; in assay [4], 0.5 nM; in assay [5] it was 20 nM.

As to `N=C(N)NCCC[C@H](NC(=O)[C@H](Cc1ccccc1)NC(=O)[C@H](Cc1c[nH]cn1)NC(=O)C(O)Cc1ccccc1)C(=O)N[C@@H](Cc1c[nH]c2ccccc12)C(N)=O` (some centres undefined), the Ki in assay [1] amounted to 11.5 nM; in assay [2], 15.5 nM; in assay [6], 140 nM. For the same compound, the EC50 in assay [3] is 40.5 nM; in assay [4], 8 nM; in assay [5] it was 6.3 nM.

For `CS(=O)(=O)N[C@@H](Cc1c[nH]cn1)C(=O)N[C@@H](Cc1ccccc1)C(=O)N[C@@H](CCCN=C(N)N)C(=O)N[C@@H](Cc1c[nH]c2ccccc12)C(N)=O`, the Ki in assay [1] was determined as 260 nM; in assay [2], 170 nM; in assay [6], 1900 nM. Moreover, the EC50 in assay [3] is 840 nM; in assay [4] it was 88 nM; in assay [5], 21.5 nM.

For the compound `CCC(=O)N[C@@H](Cc1c[nH]cn1)C(=O)N[C@@H](Cc1ccccc1)C(=O)N[C@@H](CCCN=C(N)N)C(=O)N[C@@H](Cc1c[nH]c2ccccc12)C(N)=O`, the values for the Ki in assay [1], in assay [2] and in assay [6] were 47.5 nM, 160 nM and 540 nM, respectively. The figures for the EC50 in assay [3], in assay [4] and in assay [5] were 450 nM, 7.5 nM and 38.5 nM, respectively.

Turning to `CC(C)(C)C(=O)N[C@@H](Cc1cnc[nH]1)C(=O)N[C@@H](Cc1ccccc1)C(=O)N[C@@H](CCCNC(=N)N)C(=O)N[C@@H](Cc1c[nH]c2ccccc12)C(N)=O`, the Ki in assay [1] was determined as 43 nM; in assay [2], 160 nM; in assay [6], 130 nM. For the same compound, the EC50 in assay [3] was determined as 13 nM; in assay [4] it was 5 nM; in assay [5], 14.5 nM.

As to `N=C(N)NCCC[C@H](NC(=O)[C@H](Cc1ccccc1)NC(=O)[C@H](Cc1c[nH]cn1)NC(=O)Cc1ccccc1)C(=O)N[C@@H](Cc1c[nH]c2ccccc12)C(N)=O`, the Ki in assay [1] stood at 17.5 nM; in assay [2], 100 nM; in assay [6] it was 66.5 nM. Besides, the values for the EC50 in assay [3], in assay [4] and in assay [5] were 28 nM, 2 nM and 13 nM, respectively.

As to `CCCCC(=O)N[C@@H](Cc1cnc[nH]1)C(=O)N[C@@H](Cc1ccccc1)C(=O)N[C@@H](CCCNC(=N)N)C(=O)N[C@@H](Cc1c[nH]c2ccccc12)C(N)=O`, the values for the Ki in assay [1], in assay [2] and in assay [6] were 20.5 nM, 120 nM and 170 nM, respectively. Further, the 50% effective concentration (EC50) was found to be 45 nM in assay [3], 2 nM in assay [4] and 26.5 nM in assay [5].

As to `N=C(N)NCCC[C@H](NC(=O)[C@H](Cc1ccccc1)NC(=O)[C@H](Cc1c[nH]cn1)NC(=O)COc1ccc(Cl)cc1)C(=O)N[C@@H](Cc1c[nH]c2ccccc12)C(N)=O`, the Ki in assay [1] is 6 nM; in assay [2], 68 nM; in assay [6], 110 nM. The EC50 in assay [3] stood at 6 nM; in assay [4], 2 nM; in assay [5] it was 11.5 nM.

For `N=C(N)NCCC[C@H](NC(=O)[C@H](Cc1ccccc1)NC(=O)[C@H](Cc1c[nH]cn1)NC(=O)CC(F)(F)F)C(=O)N[C@@H](Cc1c[nH]c2ccccc12)C(N)=O`, the Ki in assay [1] is 63.5 nM; in assay [2], 170 nM; in assay [6], 540 nM. Besides, the EC50 in assay [3] stood at 120 nM; in assay [4], 6.5 nM; in assay [5], 22.5 nM.

`N=C(N)NCCC[C@H](NC(=O)[C@H](Cc1ccccc1)NC(=O)[C@H](Cc1c[nH]cn1)NC(=O)c1ccccc1)C(=O)N[C@@H](Cc1c[nH]c2ccccc12)C(N)=O`: the Ki is 30 nM in assay [1], 160 nM in assay [2] and 260 nM in assay [6]. Further, the EC50 in assay [3] was determined as 98.3 nM; in assay [4] it was 6.8 nM; in assay [5], 28 nM.

As for `CC(=O)N[C@@H](Cc1c[nH]cn1)C(=O)N[C@@H](Cc1ccccc1)C(=O)N[C@@H](CCCN=C(N)N)C(=O)N[C@@H](Cc1c[nH]c2ccccc12)C(N)=O`, the Ki in assay [1] amounted to 37 nM; in assay [6] it was 770 nM. The EC50 in assay [3] stood at 170 nM; in assay [4] it was 13 nM.

For the compound `NC(=O)[C@H](Cc1c[nH]c2ccccc12)NC(=O)[C@H](CCCN=C(N)N)NC(=O)[C@@H](Cc1ccccc1)NC(=O)[C@H](Cc1cnc[nH]1)NC(=O)CCCc1ccccc1`, the Ki came to 0.006 nM in assay [1] and 13.5 nM in assay [6]. Moreover, it took 0.009 nM to reach a half-maximal effect in assay [4] (EC50).

Regarding `N#CCC(=O)N[C@@H](Cc1c[nH]cn1)C(=O)N[C@@H](Cc1ccccc1)C(=O)N[C@@H](CCCNC(=N)N)C(=O)N[C@@H](Cc1c[nH]c2ccccc12)C(N)=O`, the Ki in assay [1] was 86.5 nM; in assay [2], 110 nM; in assay [6], 350 nM. The results for the EC50 in assay [3], in assay [4] and in assay [5] were 160 nM, 8 nM and 18 nM, respectively.

As to `N=C(N)NCCC[C@H](NC(=O)[C@H](Cc1ccccc1)NC(=O)[C@H](Cc1cnc[nH]1)NC(=O)Cc1ccc(Cl)cc1)C(=O)N[C@@H](Cc1c[nH]c2ccccc12)C(N)=O`, the Ki in assay [1] was 3.5 nM; in assay [2] it was 5 nM; in assay [6] it was 20 nM. For the same compound, the EC50 in assay [3] was 9.3 nM; in assay [4], 9.5 nM; in assay [5], 7.5 nM.

Turning to `CCCC(=O)N[C@@H](Cc1cnc[nH]1)C(=O)N[C@@H](Cc1ccccc1)C(=O)N[C@@H](CCCNC(=N)N)C(=O)N[C@@H](Cc1c[nH]c2ccccc12)C(N)=O`, the Ki in assay [1] was found to be 37.5 nM; in assay [2], 150 nM; in assay [6], 580 nM. For the same compound, the EC50 in assay [3] amounted to 93.3 nM; in assay [4] it was 4.5 nM; in assay [5], 38.5 nM.

In the case of `COCC(=O)N[C@@H](Cc1cnc[nH]1)C(=O)N[C@@H](Cc1ccccc1)C(=O)N[C@@H](CCCNC(=N)N)C(=O)N[C@@H](Cc1c[nH]c2ccccc12)C(N)=O`, the results for the Ki in assay [1], in assay [2] and in assay [6] were 91.5 nM, 350 nM and 380 nM, respectively. Also, the concentration giving a half-maximal response (EC50) in assay [3] worked out at 570 nM; in assay [4] it was 9.5 nM; in assay [5] it was 42.5 nM.

`N=C(N)NCCC[C@H](NC(=O)[C@H](Cc1ccccc1)NC(=O)[C@H](Cc1cnc[nH]1)NS(=O)(=O)c1ccc(Cl)cc1)C(=O)N[C@@H](Cc1c[nH]c2ccccc12)C(N)=O`: the Ki in assay [1] was 170 nM; in assay [2] it was 66.5 nM; in assay [6] it was 440 nM. In addition, the figures for the EC50 in assay [3], in assay [4] and in assay [5] were 390 nM, 33.3 nM and 11 nM, respectively.

On to `N=C(N)NCCC[C@H](NC(=O)[C@H](Cc1ccccc1)NC(=O)[C@H](Cc1c[nH]cn1)NC(=O)CO)C(=O)N[C@@H](Cc1c[nH]c2ccccc12)C(N)=O`, for which the Ki came out at 125 nM in assay [1], 440 nM in assay [2] and 630 nM in assay [6]. For the same compound, the EC50 in assay [3] came out at 300 nM; in assay [4], 7 nM; in assay [5], 53 nM.

On to `CSCC(=O)N[C@@H](Cc1cnc[nH]1)C(=O)N[C@@H](Cc1ccccc1)C(=O)N[C@@H](CCCNC(=N)N)C(=O)N[C@@H](Cc1c[nH]c2ccccc12)C(N)=O`, for which the values for the Ki in assay [1], in assay [2] and in assay [6] were 57.5 nM, 210 nM and 230 nM, respectively. Further, the EC50 in assay [3] came out at 230 nM; in assay [4] it was 9 nM; in assay [5], 41 nM.

For `N=C(N)NCCC[C@H](NC(=O)[C@H](Cc1ccccc1)NC(=O)[C@H](Cc1cnc[nH]1)NC(=O)C1CC1)C(=O)N[C@@H](Cc1c[nH]c2ccccc12)C(N)=O`, the Ki is 43 nM in assay [1], 87 nM in assay [2] and 210 nM in assay [6]. In addition, the EC50 worked out at 71 nM in assay [3], 3.5 nM in assay [4] and 20.5 nM in assay [5].

As for `N=C(N)NCCC[C@H](NC(=O)[C@H](Cc1ccccc1)NC(=O)[C@H](Cc1cnc[nH]1)NC(=O)CCCO)C(=O)N[C@@H](Cc1c[nH]c2ccccc12)C(N)=O`, the Ki in assay [1] came to 34 nM; in assay [2] it was 100 nM; in assay [6], 440 nM. The EC50 came out at 640 nM in assay [3], 13.7 nM in assay [4] and 21.3 nM in assay [5].

With `N=C(N)NCCC[C@H](NC(=O)[C@H](Cc1ccccc1)NC(=O)[C@H](Cc1cnc[nH]1)NC(=O)C(N)=O)C(=O)N[C@@H](Cc1c[nH]c2ccccc12)C(N)=O`, the results for the Ki in assay [1], in assay [2] and in assay [6] were 62 nM, 140 nM and 160 nM, respectively. Further, the EC50 in assay [3] was 58 nM; in assay [4], 7 nM; in assay [5], 16.5 nM.

For the compound `N=C(N)NCCC[C@H](NC(=O)[C@H](Cc1ccccc1)NC(=O)[C@@H](N)Cc1cnc[nH]1)C(=O)N[C@@H](Cc1c[nH]c2ccccc12)C(N)=O`, the Ki in assay [1] is 51 nM; in assay [2], 180 nM; in assay [6], 890 nM. The EC50 in assay [3] is 350 nM; in assay [4], 31.8 nM; in assay [5] it was 29.7 nM.
